Experimental data taken from patent US12533350B2, “Use of melanocortin-1 receptor agonist” (TANABE PHARMA CORPORATION, priority 2022, dated 2026).

Experiments:
[1] = test system: serum proteins in BLM-induced SSc model; conditions: Compound A 10 mg/kg
Method: Serum samples were obtained from mice of the BLM-induced SSc model (therapeutic evaluation). Samples from the saline_vehicle (control group without disease), BLM_vehicle (control group with disease), BLM_Compound A (10 mg/kg), and BLM_imatinib (150 mg/kg) groups were used for analysis. Using a Luminex assay (R&D systems), 110 proteins were investigated (supplemental Table s1). Proteins satisfying any of the following criteria were analyzed: i) all samples were adequately measured within the quantitative range; ii) more than half of the samples in one or more groups were quantified, although some samples were out of the quantitative range.
Using serum samples of mice to which 10 mg/kg of Compound A and 150 mg/kg of imatinib were administered, serum protein profiling was carried out in a BLM-induced SSc model (treatment model). Using a Luminex assay, 110 kinds of proteins were investigated.

[2] = test system: pre-established BLM-induced skin fibrosis
MC1R = MC1R (Homo sapiens, UniProt Q01726); conditions: described in WO 2020/138481; co-crystal with phosphoric acid; cited from earlier work
[3] = Compound A at 3 and 10 mg/kg orally once daily day 22-42, samples day 43

Sequence of MC1R (Q01726 whole entry, species assumed): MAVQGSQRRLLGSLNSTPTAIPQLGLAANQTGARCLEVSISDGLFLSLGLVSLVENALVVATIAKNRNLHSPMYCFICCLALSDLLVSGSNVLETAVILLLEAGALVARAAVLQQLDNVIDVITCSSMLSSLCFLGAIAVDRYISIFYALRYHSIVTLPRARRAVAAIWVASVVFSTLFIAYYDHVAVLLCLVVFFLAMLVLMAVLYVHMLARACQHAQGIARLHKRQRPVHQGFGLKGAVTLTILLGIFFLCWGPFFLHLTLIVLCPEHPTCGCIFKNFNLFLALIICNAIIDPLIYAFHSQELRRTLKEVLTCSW

COC[C@H]1CN(C(=O)[C@]2(F)CN(C3CCCC3)C[C@H]2c2ccc(OC)cc2)C[C@@H]1c1ccc(C(F)(F)F)cc1N1CCC(C(=O)O)CC1 [Compound A, 1-{2-[(3S,4R)-1-{[(3R,4R)-1-cyclopentyl-3-fluoro-4-(4-methoxyphenyl)pyrrolidin-3-yl]carbonyl}-4-(methoxymethyl)pyrrolidin-3-yl]-5-(trifluoromethyl)phenyl}piperidine-4-carboxylic acid]
BLM-induced elevation of serum GDF-15 [1]: significantly suppressed
BLM-induced elevation of serum MMP-2 [1]: significantly suppressed
BLM-induced elevation of serum MMP-3 [1]: significantly suppressed
BLM-induced elevation of serum P-selectin [1]: significantly suppressed
BLM-induced elevation of serum S100A9 [1]: significantly suppressed
BLM-induced elevation of serum TIMP-1 [1]: significantly suppressed
BLM-induced elevation of serum TNFRI [1]: significantly suppressed
BLM-induced elevation of serum TNFRII [1]: significantly suppressed
BLM-induced elevation of serum adiponectin [1]: significantly suppressed
BLM-induced elevation of serum cystatin C [1]: significantly suppressed
BLM-induced elevation of serum osteoprotegerin [1]: significantly suppressed
BLM-induced increase of skin thickness [2, 3]: significantly inhibited
BLM-induced increase of αSMA-positive myofibroblasts in the dermis [2, 3]: significantly inhibited
BLM-induced loss of dermal white adipose tissue (Masson's trichrome staining) ([2]; Compound A orally once daily day 22-42, samples day 43): inhibited
progression of fibrosis after 3 weeks (versus group 2: BLM 3 weeks then saline 3 weeks) ([2]; Compound A orally once daily during last 3 weeks of 6-week BLM): almost completely inhibited
MCR-activating action, especially MC1R-activating action (MC1R): excellent MCR-activating action
